Results published in patent US20210340142A1, “SALT FORM AND CRYSTAL FORM OF NOVEL AZATRICYCLIC COMPOUND AND USE THEREOF” (BETTA PHARMACEUTICALS CO., LTD, priority 2018, published 2021).

Key:
[1] = Hygroscopicity assessment by dynamic vapor sorption (DVS); assay type: physicochemical; details: weight change between 0% RH to 80% RH, 25° C.
Experimental: The hygroscopicity of the sample (the sample is a variety of crystal forms shown in Table 26) was tested using dynamic vapor sorption (DVS) instrument, and the water uptake of the sample at 0% RH (relative humidity) to 80% RH was tested.

[2] = Stability assessment (influencing factors, 14 days; XRD, TGA, HPLC); assay type: physicochemical; details: for Crystalline form (XRD) / Decrease value of the main ingredient content (HPLC) / Weight loss (TGA): 14th day
Experimental: Samples and preparation of experimental: An appropriate amount of maleate salt crystalline form 1, methanesulfonate salt crystalline form 1 and the compound of Formula I were put in watch glasses, and then spread into a thin layer about 3-5 mm in thickness.
Experimental conditions: Under conventional (25° C., avoid light), high temperature (60° C., avoid light), high temperature and high humidity (40° C./75% RH, open and avoid light), light (25° C., 4500 lux±500 lux, open) and oxidation (40° C., container closure containing urea hydrogen peroxide, open and avoid light) conditions for 14 days.
Test items: Sampled on 0th day and 14th day, the XRD, TGA and HPLC were tested and compared, the test results on the 14th day were show in Table 27.

NCI-H1581 cells = assay: cells; details: Homo sapiens, NCI-H1581, read-out: IC50 on NCI-H1581 cells
Experimental: 100 μl of CellTiter-Glo reagent was added to the assay plate and incubated for 10 min at room temperature to stabilize the luminescence signal.

SNU-16 cells = assay: Cell proliferation assay (CellTiter Glo); assay type: cell-based; details: Homo sapiens, growth inhibition in vitro, 96 hrs
Experimental: Test method: the cells were added appropriate volume of whole medium to suspend. 100 μl of the cell suspension was added to a 96-well plate and placed in a CO2 incubator overnight. Tested compounds were dissolved in DMSO and subjected to a 3-fold gradient dilution for a total of 10 concentrations. Tested compound and DMSO reference materials were transferred to the corresponding wells containing 100 μl of medium respectively. Incubated in 5% CO2 at 37° C. for 96 hrs. 100 μl of CellTiter-Glo reagent was added to the assay plate and incubated for 10 min at room temperature to stabilize the luminescence signal. The IC50 value was calculated by recording the RLU (relative luminescence unit) using VICTOR TM X5 instrument.

[3] = Pharmacokinetic study of compound of Formula I and maleate salt crystalline form 1 (Example 22); assay type: in vivo; details: male, rat, plasma, SD rats, oral, 10 mg/kg, 10% DMSO/10% Solutol/80% Water
Source text: Drugs and reagents: 6-(2-chloro-3,5-dimethoxyphenyl)-N-(4-(4-morpholinopiperidin-1-yl)phenyl)-[1,2,4]triazolo[4′, 3′:1,6]pyrido[2,3-d]pyrimidin-2-amine (compound of Formula I), and maleate salt crystalline form 1 of the compound of Formula I used in this study were grounded to fine particles. The material content (purity) was not less than 99.0%.
Experimental animals: SD rats were randomly divided into the compound of Formula I group and maleate salt crystalline form 1 group, each group including three male rats.
Pharmaceutical preparation: each compound was prepared into a clear solution in 10% DMSO/10% Solutol/80% Water solution, the final concentration of each compound was 1 mg/mL.
Administration and sample collection: each suspension was orally administered to fasted SD rats with a dose volume of 10 mL/kg and an administration dose of 10 mg/kg. The blood samples were collected in EDTA-K pre-anticoagulantion tubes before administration (0 h) and at 0.25 h, 0.5 h, 1 h, 2 h, 4 h, 7 h and 24 h after administration. The plasma was separated from the samples by centrifugation at 4000 rpm for 10 minutes at 4° C. The plasma was collected and stored at −80° C. for analysis.
The samples were analyzed by AB4000 API LC/MS combined with HPLC. Under liquid chromatography conditions, a phenomenex C18 2.6 u (50×2.1 mm) column was used as the stationary phase, acetonitrile-water and 0.1% formic acid were used as the mobile phase, and the injection volume was 10 μL.

[4] = Pharmacokinetic study of compound of Formula I and salt forms (Example 23); assay type: in vivo; details: male, rat, plasma, SD rats, oral, 10 mg/kg, prepared in purified water 0.5 mg/mL
Source text: Drugs and reagents: 6-(2-chloro-3,5-dimethoxyphenyl)-N-(4-(4-morpholinopiperidin-1-yl)phenyl)-[1,2,4]triazolo[4′,3′:1,6]pyrido[2,3-d]pyrimidin-2-amine (compound of Formula I) and salt forms thereof which include malate salt crystalline form, tartrate salt crystalline form, phosphate salt crystalline form, methanesulfonate salt crystalline form, hydrochloride salt crystalline form, fumarate salt crystalline form, citrate salt crystalline form, besylate salt crystalline form used in this study were ground to fine particles.
Experimental animals: SD rats were randomly divided into the compound of Formula I group and each salt crystalline form of the compound of Formula I group, each group including three male rats.
Pharmaceutical preparation: each compound was prepared in purified water, wherein, the mesylate salt crystalline form, hydrochloride salt crystalline form and besylate salt crystalline form were prepared into a clear solution, the malate salt crystalline form, tartrate salt crystalline form, phosphate salt crystalline form, fumarate salt crystalline form, citrate salt crystalline form and sulfate salt crystalline form were prepared into a suspension, and final concentration of each compound was 0.5 mg/mL. […]
The samples were analyzed by AB4000 API LC/MS combined with HPLC. […]

FGFR2 = FGFR2 (Homo sapiens, UniProt P21802); assay: Kinase assay (mobility shift assay)
Source text: (§1) Prepare compounds: dilute test compounds to specific concentration using 100% DMSO

FGFR3 = FGFR3 (Homo sapiens, UniProt P22607); assay: Kinase assay (mobility shift assay)
Source text: as §1

FGFR4 = FGFR4 (Homo sapiens, UniProt P22455); assay: Kinase assay (mobility shift assay)
Source text: as §1

[5] = conventional (25° C., avoid light)
[6] = high temperature (60° C., avoid light)
[7] = high temperature and high humidity (40° C./75% RH)
[8] = oxidation (40° C., urea hydrogen peroxide)

Chain of FGFR4 (P22455 22-802, species assumed): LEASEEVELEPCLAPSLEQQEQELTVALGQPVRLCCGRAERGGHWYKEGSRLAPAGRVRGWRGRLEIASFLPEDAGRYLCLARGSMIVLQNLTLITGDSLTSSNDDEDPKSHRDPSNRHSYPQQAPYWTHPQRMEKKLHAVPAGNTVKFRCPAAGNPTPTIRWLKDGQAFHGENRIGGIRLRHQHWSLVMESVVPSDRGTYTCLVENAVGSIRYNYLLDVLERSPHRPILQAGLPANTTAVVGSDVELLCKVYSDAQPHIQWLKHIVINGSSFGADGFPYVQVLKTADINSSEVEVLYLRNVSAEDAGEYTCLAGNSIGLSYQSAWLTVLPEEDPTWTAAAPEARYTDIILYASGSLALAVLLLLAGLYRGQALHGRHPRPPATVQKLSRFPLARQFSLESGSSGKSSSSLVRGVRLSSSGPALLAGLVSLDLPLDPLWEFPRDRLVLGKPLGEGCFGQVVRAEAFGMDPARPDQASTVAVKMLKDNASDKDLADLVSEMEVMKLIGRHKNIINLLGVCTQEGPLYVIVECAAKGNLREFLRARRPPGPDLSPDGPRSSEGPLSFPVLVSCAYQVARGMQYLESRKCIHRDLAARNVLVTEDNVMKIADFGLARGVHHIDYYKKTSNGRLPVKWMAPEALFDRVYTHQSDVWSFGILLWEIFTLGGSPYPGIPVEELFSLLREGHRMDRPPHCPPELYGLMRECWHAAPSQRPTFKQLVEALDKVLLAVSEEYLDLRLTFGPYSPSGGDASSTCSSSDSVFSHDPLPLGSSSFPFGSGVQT
Chain of FGFR3 (P22607 23-806, species assumed): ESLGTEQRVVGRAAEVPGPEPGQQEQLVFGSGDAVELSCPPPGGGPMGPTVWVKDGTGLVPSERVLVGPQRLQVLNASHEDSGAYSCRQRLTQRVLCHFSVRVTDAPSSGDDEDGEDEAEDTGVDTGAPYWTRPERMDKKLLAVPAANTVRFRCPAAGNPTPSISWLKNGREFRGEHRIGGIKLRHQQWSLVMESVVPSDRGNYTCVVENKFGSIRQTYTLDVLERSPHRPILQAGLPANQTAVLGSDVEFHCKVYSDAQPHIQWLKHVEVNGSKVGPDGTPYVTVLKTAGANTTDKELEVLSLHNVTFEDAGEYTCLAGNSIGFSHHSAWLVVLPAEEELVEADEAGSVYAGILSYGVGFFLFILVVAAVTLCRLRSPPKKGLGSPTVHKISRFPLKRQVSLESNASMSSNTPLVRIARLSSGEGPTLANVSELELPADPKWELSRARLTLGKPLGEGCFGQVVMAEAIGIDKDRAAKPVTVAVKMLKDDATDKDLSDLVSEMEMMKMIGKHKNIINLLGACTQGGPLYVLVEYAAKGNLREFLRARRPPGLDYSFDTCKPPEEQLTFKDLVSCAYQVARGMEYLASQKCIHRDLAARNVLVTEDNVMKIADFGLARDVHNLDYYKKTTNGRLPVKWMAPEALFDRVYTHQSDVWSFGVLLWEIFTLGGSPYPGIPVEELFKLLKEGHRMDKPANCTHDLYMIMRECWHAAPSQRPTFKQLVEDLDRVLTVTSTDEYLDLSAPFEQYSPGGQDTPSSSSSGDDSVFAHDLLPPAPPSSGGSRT
Chain of FGFR2 (P21802 22-821, species assumed): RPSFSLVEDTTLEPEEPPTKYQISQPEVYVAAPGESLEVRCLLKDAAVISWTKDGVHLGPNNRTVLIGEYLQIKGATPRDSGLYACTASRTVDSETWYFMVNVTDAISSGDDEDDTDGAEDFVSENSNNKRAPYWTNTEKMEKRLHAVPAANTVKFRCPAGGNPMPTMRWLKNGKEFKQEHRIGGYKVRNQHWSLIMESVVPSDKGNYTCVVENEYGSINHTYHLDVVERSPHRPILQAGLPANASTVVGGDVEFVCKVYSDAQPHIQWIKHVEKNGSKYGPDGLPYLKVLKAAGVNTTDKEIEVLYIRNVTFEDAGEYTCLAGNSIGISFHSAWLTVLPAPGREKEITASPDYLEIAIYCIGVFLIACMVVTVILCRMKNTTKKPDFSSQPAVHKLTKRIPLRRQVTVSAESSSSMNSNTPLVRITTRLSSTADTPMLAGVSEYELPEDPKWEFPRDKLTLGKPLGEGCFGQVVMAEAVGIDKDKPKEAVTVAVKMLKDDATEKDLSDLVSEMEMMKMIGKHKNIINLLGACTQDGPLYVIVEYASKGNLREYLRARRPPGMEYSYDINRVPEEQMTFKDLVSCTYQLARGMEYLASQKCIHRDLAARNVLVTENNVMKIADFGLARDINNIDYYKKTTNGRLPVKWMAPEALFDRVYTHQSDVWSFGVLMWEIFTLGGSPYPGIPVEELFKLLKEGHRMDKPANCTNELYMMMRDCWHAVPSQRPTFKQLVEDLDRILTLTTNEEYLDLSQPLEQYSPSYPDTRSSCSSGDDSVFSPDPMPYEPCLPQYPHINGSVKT

SMILES: COc1cc(OC)c(Cl)c(-c2cc3cnc(Nc4ccc(N5CCC(N6CCOCC6)CC5)cc4)nc3n3cnnc23)c1 [compound of Formula I, 6-(2-chloro-3,5-dimethoxyphenyl)-N-(4-(4-morpholinopiperidin-1-yl)phenyl)-[1,2,4]triazolo[4′,3′:1,6]pyrido[2,3-d]pyrimidin-2-amine]
- water uptake [1]: 15.3%
- Crystalline form (XRD) [2, 5]: unchanged
- Decrease value of the main ingredient content (HPLC) [2, 5]: <0.4%
- Weight loss (TGA) [2, 5]: 20%-22%
- Crystalline form (XRD) [2, 6]: transformed
- Decrease value of the main ingredient content (HPLC) [2, 6]: 13.5%
- Weight loss (TGA) [2, 6]: about 18%
- Decrease value of the main ingredient content (HPLC) [2, 7]: <0.4%
- Weight loss (TGA) [2, 7]: 20%-22%
- Crystalline form (XRD) ([2]; high temperature and high humidity (40° C./75% RH, open, avoid light)): decrease
- Weight loss (TGA) ([2]; light (25° C., 4500 lux±500 lux)): 20%-22%
- Crystalline form (XRD) ([2]; light (25° C., 4500 lux±500 lux, open)): transformed
- Decrease value of the main ingredient content (HPLC) [2, 8]: 40.3%
- Weight loss (TGA) [2, 8]: about 27%
- Crystalline form (XRD) ([2]; oxidation (40° C., urea hydrogen peroxide, open, avoid light)): transformed
- stability of crystalline form (XRD, overall statement) ([2]; 14 days, all conditions): relatively low
- IC50 (NCI-H1581 cells): 2 nM
- IC50 (SNU-16 cells): < 1 nM
- AUC(0-inf) [3]: 6520 ng·h/mL
- Cmax [3]: 443 ng/mL
- Tmax [3]: 6 h
- half-life [3]: 7.9 h
- AUC(0-t) ([3]; read-out: AUC(0-24)): 5870 ng·h/mL
- Cmax [4]: 179 ng/mL
- AUC(0-t) ([4]; read-out: AUC(0-24)): 786 ng·h/mL
- IC50 (FGFR2): 1.7 nM
- IC50 (FGFR3): 1.2 nM
- IC50 (FGFR4): 21 nM
